Measurements from patent US11306081B2, “Phenylacetamides as inhibitors of rock” (BRISTOL-MYERS SQUIBB COMPANY, priority 2017, dated 2022).

Each compound was assayed against ROCK2 (Homo sapiens (Human), UniProt O75116) (assay: ROCK assay (LABCHIP 3000 peptide phosphorylation assay)). Conditions: 5 μM ATP, 1.5 μM peptide substrate, dose-response.
Assay type: biochemical
Protocol: The effectiveness of compounds of the present invention as ROCK inhibitors can be determined in a 30 μL assay containing 20 mM HEPES, pH 7.5, 20 mM MgCl2, 0.015% Brij-35, 4 mM DTT, 5 μM ATP and 1.5 μM peptide substrate (FITC-AHA-AKRRRLSSLRA-OH) (SEQ ID No. 1). Compounds were dissolved in DMSO so that the final concentration of DMSO was <2%, and the reaction was initiated with Rho kinase variants. After incubation, the reaction was terminated by the addition of EDTA and the phosphorylated and non-phosphorylated peptides separated using a LABCHIP® 3000 Reader (Caliper Life Sciences). […] Compounds were tested in dose-response format, and the inhibition of kinase activity was calculated at each concentration of compound. The inhibition data were fit using a curve-fitting program to determine the IC50; i.e., the concentration of compound required to inhibit 50% of kinase activity.

ROCK2, sequence (O75116 whole entry, species assumed): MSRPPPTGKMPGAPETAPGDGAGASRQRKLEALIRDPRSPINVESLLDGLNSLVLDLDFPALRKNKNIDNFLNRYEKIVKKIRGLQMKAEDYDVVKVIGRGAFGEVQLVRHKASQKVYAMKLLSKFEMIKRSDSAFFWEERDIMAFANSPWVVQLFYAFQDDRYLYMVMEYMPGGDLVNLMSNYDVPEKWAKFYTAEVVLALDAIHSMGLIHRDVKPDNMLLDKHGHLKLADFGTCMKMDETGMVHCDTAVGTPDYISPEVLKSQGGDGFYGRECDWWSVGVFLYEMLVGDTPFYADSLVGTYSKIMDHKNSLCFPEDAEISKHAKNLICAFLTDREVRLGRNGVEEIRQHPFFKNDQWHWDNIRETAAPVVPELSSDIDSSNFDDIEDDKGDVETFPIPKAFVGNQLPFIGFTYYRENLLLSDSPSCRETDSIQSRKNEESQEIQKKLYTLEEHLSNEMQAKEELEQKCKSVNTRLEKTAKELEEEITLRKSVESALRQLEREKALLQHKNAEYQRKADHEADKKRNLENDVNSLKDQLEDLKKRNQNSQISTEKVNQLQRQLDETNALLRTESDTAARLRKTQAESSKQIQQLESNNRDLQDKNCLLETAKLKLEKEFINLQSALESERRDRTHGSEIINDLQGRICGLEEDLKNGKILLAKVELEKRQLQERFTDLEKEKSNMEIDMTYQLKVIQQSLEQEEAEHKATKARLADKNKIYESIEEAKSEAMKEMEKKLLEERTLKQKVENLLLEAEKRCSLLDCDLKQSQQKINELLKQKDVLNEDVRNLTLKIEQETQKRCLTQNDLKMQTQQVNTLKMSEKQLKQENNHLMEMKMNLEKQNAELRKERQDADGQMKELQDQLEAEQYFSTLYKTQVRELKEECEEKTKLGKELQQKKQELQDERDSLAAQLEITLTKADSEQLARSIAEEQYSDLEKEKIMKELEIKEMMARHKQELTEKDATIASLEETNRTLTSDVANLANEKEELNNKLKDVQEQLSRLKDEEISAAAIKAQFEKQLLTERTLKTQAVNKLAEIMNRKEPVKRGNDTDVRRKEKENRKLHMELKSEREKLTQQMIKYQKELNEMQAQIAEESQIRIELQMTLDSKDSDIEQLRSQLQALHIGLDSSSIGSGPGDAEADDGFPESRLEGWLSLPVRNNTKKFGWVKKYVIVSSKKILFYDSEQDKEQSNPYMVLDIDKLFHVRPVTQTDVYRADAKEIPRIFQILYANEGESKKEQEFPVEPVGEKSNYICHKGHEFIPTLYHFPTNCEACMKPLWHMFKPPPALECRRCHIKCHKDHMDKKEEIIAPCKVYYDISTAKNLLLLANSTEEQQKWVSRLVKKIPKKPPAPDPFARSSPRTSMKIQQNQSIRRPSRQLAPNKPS

Row | SMILES | IC50 [nM]
1 | NC(=O)c1cccnc1Oc1ccc(CC(=O)N2CCc3cc(OCc4ccccc4)ccc32)cc1 [Example 059, 2-(4-(2-(5-(benzyloxy)indolin-1-yl)-2-oxoethyl)phenoxy) nicotinamide] | 98
2 | NC(=O)c1cccnc1Oc1ccc(CC(=O)Nc2nc(-c3cccc4oc(=O)ccc34)cs2)cc1 [Example 061, 2-(4-(2-oxo-2-((4-(2-oxo-2H-chromen-5-yl)thiazol-2-yl)amino)ethyl)phe-noxy)nicotinamide] | 506
3 | NC(=O)c1cccnc1Oc1ccc(CC(=O)Nc2nc(-c3cccc(OC(F)(F)F)c3)cs2)cc1 [Example 062] | 863
4 | N#Cc1cccc(-c2csc(NC(=O)Cc3ccc(Oc4ncccc4C(N)=O)cc3)n2)c1 [Example 063, 2-(4-(2-((4-(3-cyanophenyl)thia-zol-2-yl)amino)-2-oxoethyl)phenoxy) nicotinamide] | 339
5 | NC(=O)c1cccnc1Oc1ccc(CC(=O)Nc2nc(-c3cccc(F)c3)cs2)cc1 [Example 064, 2-(4-(2-((4-(3-fluorophenyl)thia-zol-2-yl)amino)-2-oxoethyl)phenoxy) nicotinamide] | 423
6 | COC(=O)c1ccc2sc(NC(=O)Cc3ccc(Oc4ncccc4C(N)=O)cc3)nc2c1 [Example 065, methyl 2-(2-(4-((3-carbamoylpyridin-2-yl)oxy)phenyl)acet-amido)benzo[d]thi-azole-5-carboxylate] | 109
7 | NC(=O)c1ccc2nc(NC(=O)Cc3ccc(Oc4ncccc4C(N)=O)cc3)sc2c1 [Example 066, 2-(2-(4-((3-carbamoylpyridin-2-yl)oxy)phenyl)acet-amido)benzo[d]thi-azole-6-carboxamide] | 830
8 | COc1ccc2nc(NC(=O)Cc3ccc(Oc4ncccc4C(N)=O)cc3)sc2c1 [Example 067, 2-(4-(2-((6-methoxybenzo[d]thiazol-2-yl)amino)-2-oxoethyl)phenoxy) nicotinamide] | 89
9 | Cc1ccc2[nH]c(NC(=O)Cc3ccc(Oc4ncccc4C(N)=O)cc3)nc2c1 [Example 068, 2-(4-(2-((5-methyl-1H-benzo[d]imidazol-2-yl)amino)-2-oxoethyl)phenoxy) nicotinamide] | 600
10 | CCCS(=O)(=O)c1ccc2[nH]c(NC(=O)Cc3ccc(Oc4ncccc4C(N)=O)cc3)nc2c1 [Example 069, 2-(4-(2-oxo-2-((5-(propylsulfonyl)-1H-benzo[d]imidazol-2-yl)amino)ethyl)phe-noxy)nicotinamide] | 558
11 | COC(=O)c1ccc2nc(NC(=O)Cc3ccc(Oc4ncccc4C(N)=O)cc3)sc2c1 [Example 070, methyl 2-(2-(4-((3-carbamoylpyridin-2-yl)oxy)phenyl)acet-amido)benzo[d]thi-azole-6-carboxylate] | 57
12 | N#Cc1ccc2[nH]c(NC(=O)Cc3ccc(Oc4ncccc4C(N)=O)cc3)nc2c1 [Example 071, 2-(4-(2-((5-cyano-1H-benzo[d]imidazol-2-yl)amino)-2-oxoethyl)phenoxy) nicotinamide] | 621
13 | NC(=O)c1cccnc1Oc1ccc(CC(=O)Nc2nc3cc(C(=O)c4ccccc4)ccc3[nH]2)cc1 [Example 072, 2-(4-(2-((5-benzoyl-1H-benzo[d]imidazol-2-yl)amino)-2-oxoethyl)phenoxy) nicotinamide] | 147
14 | NC(=O)c1cccnc1Oc1ccc(CC(=O)Nc2nc3cccc(Cl)c3[nH]2)cc1 [Example 073, 2-(4-(2-((7-chloro-1H-benzo[d]imidazol-2-yl)amino)-2-oxoethyl)phenoxy) nicotinamide] | 244
15 | COC(=O)c1ccc2c(c1)nc(NC(=O)Cc1ccc(Oc3ncccc3C(N)=O)cc1)n2C [Example 074, methyl 2-(2-(4-((3-carbamoylpyridin-2-yl)oxy)phenyl)acet-amido)-1-methyl-1H-benzo[d]imidazole-5-carboxylate] | 1100
16 | Cn1nc(NC(=O)Cc2ccc(Oc3ncccc3C(N)=O)cc2)c2ccccc21 [Example 075, 2-(4-(2-((1-methyl-1H-indazol-3-yl)amino)-2-oxoethyl)phenoxy) nicotinamide] | 534
17 | CS(=O)(=O)c1ccc2nc(NC(=O)Cc3ccc(Oc4ncccc4C(N)=O)cc3)sc2c1 [Example 076, 2-(4-(2-((6-(methylsulfonyl)benzo[d]thiazol-2-yl)amino)-2-oxoethyl)phenoxy) nicotinamide] | 332
18 | Cc1cccc(Nc2ncnc3ccc(NC(=O)Cc4ccc(Oc5ncccc5C(N)=O)cc4)cc23)c1 [Example 077, 2-(4-(2-oxo-2-((4-(m-tolylamino)quinaz-olin-6-yl)amino)ethyl)phe-noxy)nicotinamide] | 42
19 | Cc1sc(NC(=O)Cc2ccc(Oc3ncccc3C(N)=O)cc2)nc1-c1ccc(F)cc1 [Example 078, 2-(4-(2-((4-(4-fluorophenyl)-5-methylthiazol-2-yl)amino)-2-oxoethyl)phenoxy) nicotinamide] | 96
20 | NC(=O)c1cccnc1Oc1ccc(CC(=O)Nc2nc3ccccc3n2Cc2ccccc2)cc1Cl [Example 079, 2-(4-(2-((1-benzyl-1H-benzo[d]imidazol-2-yl)amino)-2-oxoethyl)-2-chlorophenoxy)nico-tinamide] | 181

Results, then the compound that gave them:

Row | IC50 [nM] | SMILES
21 | 15 | Cc1sc(NC(=O)Cc2ccc(Oc3ncccc3C(N)=O)c(Cl)c2)nc1-c1ccccc1F [Example 080, 2-(2-chloro-4-(2-((4-(2-fluorophenyl)-5-methylthiazol-2-yl)amino)-2-oxoethyl)phenoxy) nicotinamide]
22 | 59 | Cc1nc2sccn2c1-c1csc(NC(=O)Cc2ccc(Oc3ncccc3C(N)=O)c(Cl)c2)n1 [Example 081, 2-(2-chloro-4-(2-((4-(6-methylimidazo[2,1-b]thiazol-5-yl)thiazol-2-yl)amino)-2-oxoethyl)phenoxy) nicotinamide]
23 | 6 | COc1cccn2nc(NC(=O)Cc3ccc(Oc4ncccc4C(N)=O)c(Cl)c3)nc12 [Example 082, 2-(2-chloro-4-(2-((8-methoxy-[1,2,4]triazolo[1,5-a]pyridin-2-yl)amino)-2-oxoethyl)phenoxy) nicotinamide]
24 | 106 | COc1cccn2nc(NC(=O)Cc3ccc(Oc4ncccc4C(N)=O)cc3)nc12 [Example 083, 2-(4-(2-((8-methoxy-[1,2,4]triazolo[1,5-a]pyridin-2-yl)amino)-2-oxoethyl)phenoxy) nicotinamide]
25 | 947 | CN1CCc2sc(NC(=O)Cc3ccc(Oc4ncccc4C(N)=O)c(F)c3)nc2C1 [Example 084, 2-(2-fluoro-4-(2-((5-methyl-4,5,6,7-tetrahydrothiazolo [4,5-c]pyridin-2-yl)amino)-2-oxoethyl)phenoxy) nicotinamide]
26 | 176 | Cc1sc(NC(=O)Cc2ccc(Oc3ncccc3C(N)=O)c(F)c2)nc1-c1ccc(F)nc1 [Example 085, 2-(2-fluoro-4-(2-((4-(6-fluoropyridin-3-yl)-5-methylthiazol-2-yl)amino)-2-oxoethyl)phenoxy) nicotinamide]
27 | 137 | Cc1sc(NC(=O)Cc2ccc(Oc3ncccc3C(N)=O)c(F)c2)nc1-c1ccnn1C [Example 086, 2-(2-fluoro-4-(2-((5-methyl-4-(1-methyl-1H-pyrazol-5-yl)thiazol-2-yl)amino)-2-oxoethyl)phenoxy) nicotinamide]
28 | 47 | Cc1sc(NC(=O)Cc2ccc(Oc3ncccc3C(N)=O)c(F)c2)nc1-c1ccccn1 [Example 087, 2-(2-fluoro-4-(2-((5-methyl-4-(pyridin-2-yl)thiazol-2-yl)amino)-2-oxoethyl)phenoxy) nicotinamide]
29 | 126 | Cc1cnc(NC(=O)Cc2ccc(Oc3ncccc3C(N)=O)c(F)c2)s1 [Example 088, 2-(2-fluoro-4-(2-((5-methylthiazol-2-yl)amino)-2-oxoethyl)phenoxy) nicotinamide]
30 | 14 | Cc1nccc(-c2nc(NC(=O)Cc3ccc(Oc4ncccc4C(N)=O)c(F)c3)sc2C)n1 [Example 089, 2-(2-fluoro-4-(2-((5-methyl-4-(2-methylpyrimidin-4-yl)thiazol-2-yl)amino)-2-oxoethyl)phenoxy) nicotinamide]
31 | 419 | NC(=O)c1cccnc1Oc1ccc(CC(=O)Nc2nnc(-c3cccnc3)s2)cc1F [Example 090, 2-(2-fluoro-4-(2-oxo-2-((5-(pyridin-3-yl)-1,3,4-thiadiazol-2-yl)amino)ethyl)phe-noxy)nicotinamide]
32 | 874 | NC(=O)c1cccnc1Oc1ccc(CC(=O)Nc2nnc(C(F)(F)F)s2)cc1F [Example 091, 2-(2-fluoro-4-(2-oxo-2-((5-(trifluoromethyl)-1,3,4-thiadiazol-2-yl)amino)ethyl)phe-noxy)nicotinamide]
33 | 361 | NC(=O)c1cccnc1Oc1ccc(CC(=O)Nc2nnc(C3CC3)s2)cc1F [Example 092, 2-(4-(2-((5-cyclopropyl-1,3,4-thiadiazol-2-yl)amino)-2-oxoethyl)-2-fluorophenoxy)nico-tinamide]
34 | 213 | COc1ccc(Cc2nnc(NC(=O)Cc3ccc(Oc4ncccc4C(N)=O)c(F)c3)s2)cc1OC [Example 093, 2-(4-(2-((5-(3,4-dimethoxybenzyl)-1,3,4-thiadiazol-2-yl)amino)-2-oxoethyl)-2-fluorophenoxy)nico-tinamide]
35 | 15 | COc1cccn2nc(NC(=O)Cc3ccc(Oc4ncccc4C(N)=O)c(F)c3)nc12 [Example 094, 2-(2-fluoro-4-(2-((8-methoxy-[1,2,4]triazolo[1,5-a]pyridin-2-yl)amino)-2-oxoethyl)phenoxy) nicotinamide]
36 | 113 | CN1CCC(Oc2ccc(NC(=O)Cc3ccc(Oc4ncccc4C(N)=O)c(Cl)c3)cc2)CC1 [Example 095, 2-(2-chloro-4-(2-((4-((1-methylpiperidin-4-yl)oxy)phenyl)ami-no)-2-oxoethyl)phenoxy) nicotinamide]
